Reference: PubChem BioAssay (NCI)
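In this assay, cells in 96-well plates receive the compound at five concentrations for 48 hours. Endpoints are linearly interpolated between the surrounding concentrations. TGI marks complete inhibition of growth.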

Tests used:
Test in all cases: DTP human tumour cell line panel, 48 h
NCI-H522 lung = system: NCI-H522 lung
SF-539 CNS = system: SF-539 CNS
SNB-19 CNS = system: SNB-19 CNS
TK-10 renal = system: TK-10 renal
SK-MEL-28 melanoma = system: SK-MEL-28 melanoma
EKVX NSCLC = system: EKVX NSCLC
LOX IMVI melanoma = system: LOX IMVI melanoma
K-562 leukemia = system: K-562 leukemia
HL-60(TB) leukemia = system: HL-60(TB) leukemia

SMILES	TGI (NCI-H522 lung) [µM]	TGI (SF-539 CNS) [µM]	TGI (SNB-19 CNS) [µM]	TGI (TK-10 renal) [µM]	TGI (SK-MEL-28 melanoma) [µM]	TGI (EKVX NSCLC) [µM]	TGI (LOX IMVI melanoma) [µM]	TGI (K-562 leukemia) [µM]	TGI (HL-60(TB) leukemia) [µM]
Nc1ccc2[nH]c(-c3cccc(Cl)c3)cc(=O)c2c1	6.87	5.15	> 100	8.55	> 100	> 100	–	–	–
Cc1cc2[nH]c3c(C#N)c4c(c(=O)n3c2cc1C)CCCC4	> 100	> 100	> 100	> 100	> 100	> 100	> 100	> 100	> 100
CN(C)CCn1c(=O)c2ccc(NCCCN(C)CCCNc3ccc4c(=O)n(CCN(C)C)c(=O)n5c6ccc([N+](=O)[O-])cc6c(=O)c3c45)c3c(=O)c4cc([N+](=O)[O-])ccc4n(c1=O)c23	0.134	0.851	0.193	1.52	0.553	1.32	–	–	1.56
COc1ccc2cc(NC(=O)N/N=C\c3ccc(Cl)cc3)ccc2c1	> 100	> 100	> 100	> 100	> 100	> 100	> 100	> 100	> 100
Brc1cc2nn(-c3ccccc3)nc2c2nonc12	> 100	> 100	> 100	> 100	> 100	> 100	> 100	> 100	> 100
O=C1C=CC(=O)c2c(O)c(NCCc3ccc(O)cc3)c(Cl)c(O)c21	> 10	> 10	> 10	> 10	–	> 10	> 10	> 10	> 10
COC(=O)C1=Nc2c(C)nn(-c3ccccc3)c2N=C(c2ccc([N+](=O)[O-])cc2)C1	> 10	> 10	> 10	> 10	> 10	–	> 10	> 10	> 10
CCC(C)C(=O)OC1CC2(C)C(c3ccoc3)OC(=O)CC23OC2(C)OC34C(OC(=O)C(C)C)C3(O)C(OC(=O)C5(C)OC5C)C5(C)CC3(O)C(C)(C5CC(=O)OC)C14O2 (stereo not given)	> 100	79.6	> 100	> 100	> 100	> 100	> 100	> 100	38.9
